Values of other authors, collected in US4916151A, “Method of treating parkinson's syndrome” (Merrell Dow Pharmaceuticals Inc., priority 1989, dated 1990).

How the values were obtained:
MAO = conditions: literature; selectivity lost as dosage is increased
depression = conditions: literature reports
[1] = literature

SMILES | preferential inhibition of MAO-A or MAO-B (MAO) | clinical antidepressant effect (depression) | potentiation of L-dopa for treatment of Parkinson's disease [1]
NNCCc1ccccc1 [phenelzine] | not preferential in their action upon MAO | – | –
Cc1cc(C(=O)NNCc2ccccc2)no1 [isocarboxazid] | not preferential in their action upon MAO | – | –
C#CCN(C)Cc1ccccc1 [pargyline] | MAO-B is preferentially inhibited | clinically effective antidepressant agents | –
C#CCN(C)[C@H](C)Cc1ccccc1 [L-deprenyl] | MAO-B is preferentially inhibited | clinically effective antidepressant agents | potentiate L-dopa for the treatment of Parkinson's disease without producing peripheral side effects
N[C@@H]1C[C@H]1c1ccccc1 (relative stereo) [tranylcypromine] | not preferential in their action upon MAO | – | –
C#CCN(C)CCCOc1ccc(Cl)cc1Cl [clorgyline] | – | clinically effective antidepressant agents | –
